Tests used:
[1] = biological target: T1, Recombinant STAT6 protein (STAT6(W123-T658)) (Homo sapiens, UniProt P42226); experiment: STAT6 Fluorescence Polarization (FP) Assay; assay type: binding; conditions: STAT6(W123-T658) 250 nM, probe 5-FAM-ApYKPFQDLI-NH2 2 nM, 45-minute incubation
T1 construct: STAT6(W123-T658)
T1 sequence (P42226 123-658): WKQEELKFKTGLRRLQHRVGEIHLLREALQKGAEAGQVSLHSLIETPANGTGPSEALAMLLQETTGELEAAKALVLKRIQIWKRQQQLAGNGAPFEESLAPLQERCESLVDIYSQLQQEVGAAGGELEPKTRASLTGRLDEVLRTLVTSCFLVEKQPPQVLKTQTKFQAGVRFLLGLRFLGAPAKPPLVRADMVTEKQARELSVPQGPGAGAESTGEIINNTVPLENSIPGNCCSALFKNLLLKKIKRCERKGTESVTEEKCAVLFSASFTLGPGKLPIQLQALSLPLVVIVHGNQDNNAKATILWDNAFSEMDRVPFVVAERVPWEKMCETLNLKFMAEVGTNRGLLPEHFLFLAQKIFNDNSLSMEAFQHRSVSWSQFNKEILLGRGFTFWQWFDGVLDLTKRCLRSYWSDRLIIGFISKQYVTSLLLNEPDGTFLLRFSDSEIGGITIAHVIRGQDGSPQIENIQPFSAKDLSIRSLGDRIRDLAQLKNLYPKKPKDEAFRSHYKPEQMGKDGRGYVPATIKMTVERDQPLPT
Method in brief: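 STAT6 (W123-T658) at 250 nM mixed with 2 nM 5-FAM-ApYKPFQDLI-NH2 probe in HEPES pH 7.4 buffer with DTT and Tween 20, 1% DMSO final. Polarization read after 45 min at room temperature; IC50 by nonlinear regression of mP versus log concentration, reported in bins A–D.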

[2] = biological target: T2, Recombinant STAT3 protein (STAT3(G127-I722)) (Homo sapiens, UniProt P40763); experiment: STAT3 Fluorescence Polarization (FP) Assay; assay type: binding; conditions: STAT3(G127-I722) 25 nM, probe 5-FAM-GpYLPQTV-NH2 2 nM, 45-minute incubation
T2 construct: STAT3(G127-I722)
T2 sequence (P40763 127-722, species assumed): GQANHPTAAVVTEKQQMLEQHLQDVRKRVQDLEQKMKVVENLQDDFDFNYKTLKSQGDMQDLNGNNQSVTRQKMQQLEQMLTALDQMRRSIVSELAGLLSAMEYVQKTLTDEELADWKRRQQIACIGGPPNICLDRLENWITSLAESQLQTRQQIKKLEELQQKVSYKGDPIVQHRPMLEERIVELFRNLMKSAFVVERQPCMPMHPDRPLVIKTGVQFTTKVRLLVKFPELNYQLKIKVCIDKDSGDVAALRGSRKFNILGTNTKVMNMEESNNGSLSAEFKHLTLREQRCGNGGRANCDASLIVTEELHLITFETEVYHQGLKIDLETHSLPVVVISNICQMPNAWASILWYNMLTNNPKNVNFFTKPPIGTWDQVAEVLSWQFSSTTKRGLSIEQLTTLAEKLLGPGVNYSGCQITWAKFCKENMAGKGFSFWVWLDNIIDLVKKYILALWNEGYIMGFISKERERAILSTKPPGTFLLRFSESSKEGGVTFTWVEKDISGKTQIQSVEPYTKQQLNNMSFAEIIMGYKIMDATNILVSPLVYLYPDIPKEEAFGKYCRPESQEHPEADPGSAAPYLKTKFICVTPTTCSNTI
Method in brief: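 STAT3(G127-I722) at 25 nM and 5-FAM-GpYLPQTV-NH2 probe at 2 nM in HEPES pH 7.4 buffer with NaCl, EDTA, Tween 20, DTT; 1% DMSO. FP read after 45 min at room temperature; IC50 by nonlinear regression of mP vs log concentration, binned A ≤100 nM to D >10 μM.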

| Molecule | IC50 [1] | IC50 [2] |
| --- | --- | --- |
| O=C(N[C@H]1C[C@@H]2C[C@@H]2C[C@H]2CC[C@@H](C(=O)N3CCC34CCCC4)N2C1=O)c1cc2cc(C(F)P(=O)(O)O)ccc2s1 (stereo partly drawn) [Example 389, (fluoro(2-(((3S,6S,7aS,8aR,9aR)-5-oxo-3-(1-azaspiro[3.4]octane-1-carbonyl)decahydro-1H-cyclopropa[d]pyrrolo[1,2-a]azocin-6-yl)carbamoyl)benzo[b]thiophen-5-yl)methyl)phosphonic acid] | 3 to 30 µM | 1 to 10 µM |
| CN(C)c1ccncc1C1CN(C(=O)[C@@H]2CC[C@@H]3C[C@@H]4C[C@@H]4C[C@H](NC(=O)c4cc5cc(CP(=O)(O)O)ccc5s4)C(=O)N32)C1 [Example 393, ((2-(((3S,6S,7aR,8aS,9aR)-3-(3-(4-(dimethylamino)pyridin-3-yl)azetidine-1-carbonyl)-5-oxodecahydro-1H-cyclopropa[d]pyrrolo[1,2-a]azocin-6-yl)carbamoyl)benzo[b]thiophen-5-yl)methyl)phosphonic acid] | > 30 µM | < 0.1 µM |
| CN(C)c1ccncc1C1CN(C(=O)[C@@H]2CC[C@@H]3C[C@H]4C[C@H]4C[C@H](NC(=O)c4cc5cc(C(F)(F)P(=O)(O)O)ccc5s4)C(=O)N32)C1 [Example 419, ((2-(((3S,6S,7aS,8aR,9aR)-3-(3-(4-(dimethylamino)pyridin-3-yl)azetidine-1-carbonyl)-5-oxodecahydro-1H-cyclopropa[d]pyrrolo[1,2-a]azocin-6-yl)carbamoyl)benzo[b]thiophen-5-yl)difluoromethyl)phosphonic acid] | 0.3 to 3 µM | < 0.1 µM |
| ((R)-fluoro(2-(((3S,6S,7aS,8aR,9aR)-3-(3-(morpholine-4-carbonyl)azetidine-1-carbonyl)-5-oxodecahydro-1H-cyclopropa[d]pyrrolo[1,2-a]azocin-6-yl)carbamoyl)benzo[b]thiophen-5-yl)methyl)phosphonic acid or ((S)-fluoro(2-(((3S,6S,7aS,8aR,9aR)-3-(3-(morpholine-4-carbonyl)azetidine-1-carbonyl)-5-oxodecahydro-1H-cyclopropa[d]pyrrolo[1,2-a]azocin-6-yl)carbamoyl)benzo[b]thiophen-5-yl)methyl)phosphonic acid [Compound 33] | 3 to 30 µM | < 0.1 µM |
| ((S)-fluoro(2-(((3S,6S,7aS,8aR,9aR)-3-(3-(morpholine-4-carbonyl)azetidine-1-carbonyl)-5-oxodecahydro-1H-cyclopropa[d]pyrrolo[1,2-a]azocin-6-yl)carbamoyl)benzo[b]thiophen-5-yl)methyl)phosphonic acid Or ((R)-fluoro(2-(((3S,6S,7aS,8aR,9aR)-3-(3-(morpholine-4-carbonyl)azetidine-1-carbonyl)-5-oxodecahydro-1H-cyclopropa[d]pyrrolo[1,2-a]azocin-6-yl)carbamoyl)benzo[b]thiophen-5-yl)methyl)phosphonic acid [Compound 34] | > 30 µM | 0.1 to 1 µM |
| (difluoro(2-(((3S,6S,7aR,8aS,9aR)-5-ox0-3-(3-(pyridin-2-yl)azetidine-1-carbonyl)decahydro-1H-cyclopropa[d]pyrrolo[1,2-a]azocin-6-yl)carbamoyl)benzo[b]thiophen-5-yl)methyl)phosphonic acid [Compound 106] | 0.3 to 3 µM | < 0.1 µM |
| (difluoro(2-(((3S,6S,8aR,9aS,9bR)-3-(3-methoxy-3-(1-methyl-1H-imidazol-2-yl)azetidine-1-carbonyl)-8a-methyl-5-oxodecahydro-1H-cyclopropa[c]pyrrolo[1,2-a]azocin-6-yl)carbamoyl)benzo[b]thiophen-5-yl)methyl)phosphonic acid [Example 241] | 3 to 30 µM | 0.1 to 1 µM |

More lines, now with the values ahead:

| IC50 [1] | IC50 [2] | Molecule |
| --- | --- | --- |
| 3 to 30 µM | 0.1 to 1 µM | O=C(N[C@H]1C[C@@H]2C[C@@H]2C[C@H]2CC[C@@H](C(=O)N3CC(c4ccccc4)C3)N2C1=O)c1cc2cc(C(F)P(=O)(O)O)ccc2s1 (stereo partly drawn) [Example 390, (fluoro(2-(((3S,6S,7aS,8aR,9aR)-5-oxo-3-(3-phenylazetidine-1-carbonyl)decahydro-1H-cyclopropa[d]pyrrolo[1,2-a]azocin-6-yl)carbamoyl)benzo[b]thiophen-5-yl)methyl)phosphonic acid] |
| 3 to 30 µM | 0.1 to 1 µM | O=C(N[C@H]1C[C@@H]2C[C@@H]2C[C@H]2CC[C@@H](C(=O)N3CC(c4nocc4Br)C3)N2C1=O)c1cc2cc(C(F)P(=O)(O)O)ccc2s1 (stereo partly drawn) [Example 400, ((2-(((3S,6S,7aS,8aR,9aR)-3-(3-(4-bromoisoxazol-3-yl)azetidine-1-carbonyl)-5-oxodecahydro-1H-cyclopropa[d]pyrrolo[1,2-a]azocin-6-yl)carbamoyl)benzo[b]thiophen-5-yl)fluoromethyl)phosphonic acid] |
| 3 to 30 µM | < 0.1 µM | CCOc1ccncc1C1CN(C(=O)[C@@H]2CC[C@@H]3C[C@H]4C[C@H]4C[C@H](NC(=O)c4cc5cc([C@@H](F)P(=O)(O)O)ccc5s4)C(=O)N32)C1 [Example 420, ((S)-(2-(((3S,6S,7aS,8aR,9aR)-3-(3-(4-ethoxypyridin-3-yl)azetidine-1-carbonyl)-5-oxodecahydro-1H-cyclopropa[d]pyrrolo[1,2-a]azocin-6-yl)carbamoyl)benzo[b]thiophen-5-yl)fluoromethyl)phosphonic acid] |
| 3 to 30 µM | < 0.1 µM | O=C(N[C@H]1C[C@@H]2C[C@@H]2C[C@H]2CC[C@@H](C(=O)N3CC(c4cnccc4N4CCC4)C3)N2C1=O)c1cc2cc([C@@H](F)P(=O)(O)O)ccc2s1 [Example 421, ((S)-(2-(((3S,6S,7aS,8aR,9aR)-3-(3-(4-(azetidin-1-yl)pyridin-3-yl)azetidine-1-carbonyl)-5-oxodecahydro-1H-cyclopropa[d]pyrrolo[1,2-a]azocin-6-yl)carbamoyl)benzo[b]thiophen-5-yl)fluoromethyl)phosphonic acid] |
| 3 to 30 µM | < 0.1 µM | CO[C@@H]1CCN(c2ccncc2C2CN(C(=O)[C@@H]3CC[C@@H]4C[C@H]5C[C@H]5C[C@H](NC(=O)c5cc6cc([C@@H](F)P(=O)(O)O)ccc6s5)C(=O)N43)C2)C1 [Example 422, ((S)-fluoro(2-(((3S,6S,7aS,8aR,9aR)-3-(3-(4-((R)-3-methoxypyrrolidin-1-yl)pyridin-3-yl)azetidine-1-carbonyl)-5-oxodecahydro-1H-cyclopropa[d]pyrrolo[1,2-a]azocin-6-yl)carbamoyl)benzo[b]thiophen-5-yl)methyl)phosphonic acid] |
| > 30 µM | < 0.1 µM | COCC1(F)CN(c2ccncc2C2CN(C(=O)[C@@H]3CC[C@@H]4C[C@H]5C[C@H]5C[C@H](NC(=O)c5cc6cc([C@@H](F)P(=O)(O)O)ccc6s5)C(=O)N43)C2)C1 [Example 425, ((S)-fluoro(2-(((3S,6S,7aS,8aR,9aR)-3-(3-(4-(3-fluoro-3-(methoxymethyl)azetidin-1-yl)pyridin-3-yl)azetidine-1-carbonyl)-5-oxodecahydro-1H-cyclopropa[d]pyrrolo[1,2-a]azocin-6-yl)carbamoyl)benzo[b]thiophen-5-yl)methyl)phosphonic acid] |
| 0.3 to 3 µM | 0.1 to 1 µM | Cn1ccc2cncc(C3CN(C(=O)[C@@H]4CC[C@@H]5C[C@H]6C[C@H]6C[C@H](NC(=O)c6cc7cc([C@@H](F)P(=O)(O)O)ccc7s6)C(=O)N54)C3)c21 [Example 427, ((S)-fluoro(2-(((3S,6S,7aS,8aR,9aR)-3-(3-(1-methyl-1H-pyrrolo[3,2-c]pyridin-7-yl)azetidine-1-carbonyl)-5-oxodecahydro-1H-cyclopropa[d]pyrrolo[1,2-a]azocin-6-yl)carbamoyl)benzo[b]thiophen-5-yl)methyl)phosphonic acid] |
| 3 to 30 µM | < 0.1 µM | N#CC1CN(c2ccncc2C2CN(C(=O)[C@@H]3CC[C@@H]4C[C@H]5C[C@H]5C[C@H](NC(=O)c5cc6cc([C@@H](F)P(=O)(O)O)ccc6s5)C(=O)N43)C2)C1 [Example 428, ((S)-(2-(((3S,6S,7aS,8aR,9aR)-3-(3-(4-(3-cyanoazetidin-1-yl)pyridin-3-yl)azetidine-1-carbonyl)-5-oxodecahydro-1H-cyclopropa[d]pyrrolo[1,2-a]azocin-6-yl)carbamoyl)benzo[b]thiophen-5-yl)fluoromethyl)phosphonic acid] |

From patent US20250215030A1, “STAT MODULATORS AND USES THEREOF” (Recludix Pharma, Inc., priority 2022, published 2025)
